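Tested at 5 concentrations; 48 h exposure; 96-well plates; endpoints linearly interpolated, else capped at highest concentration. GI50 marks 50% less growth. Definition used: TGI = concentration required for complete inhibition of growth.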

Results on 8 compounds are retold here after PubChem BioAssay (NCI).

Some test systems named below: MDA-MB-231 breast; NCI-H23 lung; SF-539 CNS; NCI/ADR-RES ovarian; ACHN renal; KM12 colon; NCI-H226 lung; EKVX NSCLC; SNB-19 CNS; SNB-75 CNS.
What all share (assay): NCI anticancer screen, dose series, 48 h

With `COc1ccc(N=C2C(=O)Nc3ccc(Br)cc32)cc1`, the TGI in the assay on MDA-MB-231 breast was 35.3 µM; in the assay with NCI-H23 lung, 45 µM; in the assay with SF-539 CNS, 35.8 µM; in the assay with NCI/ADR-RES ovarian, 87.9 µM; in the assay with ACHN renal, 38.6 µM; with KM12 colon, 29.4 µM. For the same compound, the TGI is 35.5 µM in the assay on NCI-H226 lung, 47.1 µM with EKVX NSCLC and above 100 µM in the assay on SNB-19 CNS.
For the compound `CN(Cc1cnc2nc(N)nc(N)c2n1)c1c(Cl)cc(C(=O)NC(CCC(=O)O)C(=O)O)cc1Br` (configuration not stated), the TGI in the assay with MDA-MB-231 breast, in the assay on NCI-H23 lung, with SF-539 CNS, with NCI/ADR-RES ovarian, in the assay with ACHN renal and with KM12 colon was above 100 µM in each case. In addition, the TGI in the assay on NCI-H226 lung, in the assay with EKVX NSCLC and with SNB-19 CNS was above 100 µM throughout. Further, the GI50 with NCI-H23 lung is 0.016 µM; with SF-539 CNS, below 0.01 µM; in the assay with NCI/ADR-RES ovarian it was below 0.01 µM; with ACHN renal it was below 0.01 µM; with KM12 colon, below 0.01 µM; in the assay with NCI-H226 lung, 0.0237 µM. The figures for the GI50 in the assay on EKVX NSCLC and in the assay with SNB-19 CNS were below 0.0282 µM and 0.031 µM, respectively.
As for `Nc1c([N+](=O)[O-])ncn1C1OC(CO)C(O)C1O` (configuration not stated), the GI50 in the assay with MDA-MB-231 breast, in the assay with NCI-H23 lung, with SF-539 CNS, with SNB-75 CNS, with ACHN renal and in the assay on KM12 colon was above 100 µM each time. In addition, the GI50 in the assay with NCI-H226 lung, in the assay on EKVX NSCLC and in the assay on SNB-19 CNS was above 100 µM in each case. The TGI with MDA-MB-231 breast, with NCI-H23 lung, with SF-539 CNS, in the assay on SNB-75 CNS, in the assay with ACHN renal and in the assay with KM12 colon was above 100 µM each time. The TGI in the assay on NCI-H226 lung, in the assay on EKVX NSCLC and in the assay on SNB-19 CNS was above 100 µM throughout.
As to `CC1(C)N=C(N)N=C(N)N1c1ccc(CCCCCCc2ccc(S(=O)(=O)F)cc2)cc1`, the TGI came to 16.5 µM in the assay on MDA-MB-231 breast; 12.6 µM with NCI-H23 lung; 70.9 µM with NCI/ADR-RES ovarian; 24.8 µM in the assay with SNB-75 CNS; 14.4 µM in the assay on ACHN renal; 1.96 µM with NCI-H226 lung. For the same compound, the values for the TGI in the assay with EKVX NSCLC and with SNB-19 CNS were 21.3 µM and 5.17 µM, respectively.
On to `OCCN1CCCN(CCCN2c3ccccc3Sc3ccc(C(F)(F)F)cc32)CC1`, for which the GI50 was 2.31 µM with MDA-MB-231 breast; 1.67 µM with SF-539 CNS; 3.57 µM with NCI/ADR-RES ovarian; 1.21 µM in the assay with SNB-75 CNS; 3.56 µM with ACHN renal; 2.27 µM with KM12 colon. Also, the values for the GI50 in the assay on NCI-H226 lung and in the assay with SNB-19 CNS were 15.1 µM and 2.84 µM, respectively. Further, the TGI in the assay on MDA-MB-231 breast was determined as 6.15 µM; with SF-539 CNS, 3.12 µM; in the assay with NCI/ADR-RES ovarian, 14.7 µM; in the assay with SNB-75 CNS, 8.51 µM; in the assay with ACHN renal it was 13.4 µM; with KM12 colon, 4.69 µM. For the same compound, the TGI in the assay on NCI-H226 lung stood at 39.1 µM; in the assay with SNB-19 CNS it was 11.7 µM.
Consider `Clc1cc(Cl)cc(Nc2ccc3c(OCCCN4CCOCC4)cccc3n2)c1`, for which the GI50 in the assay with MDA-MB-231 breast is 1.8 µM; in the assay with NCI-H23 lung, 2.94 µM; with SF-539 CNS, 1.94 µM; in the assay on NCI/ADR-RES ovarian it was 2.88 µM; in the assay on ACHN renal, 3.02 µM; in the assay with KM12 colon, 2 µM. The GI50 with NCI-H226 lung was 3.17 µM; in the assay on EKVX NSCLC it was 2.95 µM; in the assay on SNB-19 CNS, 2.08 µM. Further, the TGI in the assay on MDA-MB-231 breast turned out to be 3.94 µM; in the assay with NCI-H23 lung, 10.2 µM; with SF-539 CNS it was 3.84 µM; in the assay with NCI/ADR-RES ovarian, 9.29 µM; with ACHN renal it was 10.3 µM; with KM12 colon, 4.13 µM. Besides, the TGI in the assay on NCI-H226 lung stood at 10.7 µM; in the assay on EKVX NSCLC, 9.15 µM; in the assay on SNB-19 CNS it was 4.39 µM.
As to `Cn1cc(C2=C(c3cccc([N+](=O)[O-])c3)C(=O)NC2=O)c2ccccc21`, the GI50 in the assay with MDA-MB-231 breast was 6.42 µM; in the assay on NCI-H23 lung it was 6.66 µM; with SF-539 CNS, 6.1 µM; in the assay with NCI/ADR-RES ovarian, 5.66 µM; in the assay with SNB-75 CNS it was 0.14 µM; with ACHN renal, 4.88 µM. Moreover, the GI50 in the assay on KM12 colon was 5.05 µM; in the assay with NCI-H226 lung, 4.62 µM; with SNB-19 CNS, 19.6 µM. Moreover, the TGI was above 25 µM in the assay with MDA-MB-231 breast; above 25 µM in the assay with NCI-H23 lung; above 25 µM in the assay on SF-539 CNS; above 23.1 µM in the assay on NCI/ADR-RES ovarian; above 25 µM in the assay with SNB-75 CNS; above 25 µM with ACHN renal. In addition, the TGI is 12.9 µM with KM12 colon, above 19.2 µM with NCI-H226 lung and above 25 µM in the assay on SNB-19 CNS.
Take `Cc1cn([C@H]2CN(O)C[C@@H](CO)O2)c(=O)[nH]c1=O`: the TGI with MDA-MB-231 breast, with SF-539 CNS, in the assay with SNB-75 CNS, in the assay on ACHN renal, with KM12 colon and in the assay on NCI-H226 lung was above 100 µM in each case. Further, the TGI with EKVX NSCLC and in the assay with SNB-19 CNS was above 100 µM throughout.
